# Earlier results in PMC11839890 (European Journal of Nuclear Medicine and Molecular Imaging, 2024).
# How the values were obtained:
# [1] = tested on: A431-CCK2R cells; details: cited from earlier work
# [2] = tested on: A431-CCK2R xenografts; details: in vivo; cited from earlier work
substance,measurement,setting,value
"[^177Lu]Lu-DOTA-PP-F11N: 177Lu-labelled DOTA-(DGlu)6-Ala-Tyr-Gly-Trp-Nle-Asp-Phe-NH2 (AYGW; 177Lu-DOTA-(DGlu)6, Nle-Asp-Phe-NH2; printed: Ala-Tyr-Gly-Trp-)",Bmax,"[1]; A431-CCK2R cells, nM printed only with the first value of the sentence",0.54 ± 0.10 nM
same,Kd,"[1]; same cell line (A431-CCK2R), nM printed only with the PP-F11N value",50 ± 7.3 nM
same,tumour uptake,[2],~ 7 %ID/g
